Measured values published in PubChem BioAssay AID330 (DTP/NCI, 2004).
Several values for one entry are separate records, joined by “and”; a condition that tells them apart may be missing. Identical values can stand only once. Toxic doses and inconclusive results are not listed.

Tested on: P388 leukemia ip, CD2F1 mice, survival T/C
Experiment: NCI In Vivo Anticancer Drug Screen. Data for tumor model P388 Leukemia (intraperitoneal) in CD2F1 (CDF1) mice
Settings: endpoint: median survival time, higher = longer survival
How it was run: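 Mice carrying the transplanted tumor received test compound or vehicle. Survival was recorded in each group, and the value is the treated-group measurement divided by that of the vehicle-treated control group.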

[1] = dose: 60.0 mg/kg/injection, schedule: Q01DX005 (ip), vehicle: saline with Tween-80
[2] = dose: 120.0 mg/kg/injection, schedule: Q01DX005 (ip), vehicle: saline with Tween-80
[3] = dose: 240.0 mg/kg/injection, schedule: Q01DX005 (ip), vehicle: saline with Tween-80
[4] = dose: 50.0 mg/kg/injection, schedule: Q01DX009 (ip), vehicle: saline
[5] = dose: 100.0 mg/kg/injection, schedule: Q01DX009 (ip), vehicle: saline
[6] = dose: 200.0 mg/kg/injection, schedule: Q01DX009 (ip), vehicle: saline
[7] = dose: 100.0 mg/kg/injection, schedule: Q04DX003 (ip), vehicle: saline with Tween-80
[8] = dose: 200.0 mg/kg/injection, schedule: Q04DX003 (ip), vehicle: saline with Tween-80
[9] = dose: 400.0 mg/kg/injection, schedule: Q04DX003 (ip), vehicle: saline with Tween-80
[10] = dose: 50.0 mg/kg/injection, schedule: Q01DX009 (ip), vehicle: saline with Tween-80
[11] = dose: 100.0 mg/kg/injection, schedule: Q01DX009 (ip), vehicle: saline with Tween-80
[12] = dose: 200.0 mg/kg/injection, schedule: Q01DX009 (ip), vehicle: saline with Tween-80
[13] = dose: 50.0 mg/kg/injection, schedule: Q01DX005 (ip), vehicle: saline with Tween-80
[14] = dose: 100.0 mg/kg/injection, schedule: Q01DX005 (ip), vehicle: saline with Tween-80
[15] = dose: 200.0 mg/kg/injection, schedule: Q01DX005 (ip), vehicle: saline with Tween-80
[16] = dose: 50.0 mg/kg/injection, schedule: Q01DX009 (ip), vehicle: Klucel (hydroxypropylcellulose) (HPC)
[17] = dose: 100.0 mg/kg/injection, schedule: Q01DX009 (ip), vehicle: Klucel (hydroxypropylcellulose) (HPC)

CN1C(c2ccccc2)=C(C#N)C(=O)CC(c2ccc(Cl)cc2)N1C (stereo not given)
T/C [1]: 102 % of control | T/C [2]: 91 % of control | T/C [3]: 101 % of control

CCCCCCCCCCCCSSSCCCCCCCCCCCC
T/C [4]: 106 % of control | T/C [5]: 97 % of control | T/C [6]: 99 % of control and 87 % of control

O=C1C2=C(C(=O)c3ncccc31)C1C=CC2CC1 (stereo not given)
T/C (dose: 25.0 mg/kg/injection, schedule: Q01DX005 (ip), vehicle: DMSO): 100 % of control | T/C (dose: 50.0 mg/kg/injection, schedule: Q01DX005 (ip), vehicle: DMSO): 100 % of control | T/C (dose: 50.0 mg/kg/injection, schedule: Q01DX005 (ip), vehicle: Klucel + Tween-80): 102 % of control | T/C (dose: 100.0 mg/kg/injection, schedule: Q01DX005 (ip), vehicle: DMSO): 104 % of control | T/C (dose: 100.0 mg/kg/injection, schedule: Q01DX005 (ip), vehicle: Klucel + Tween-80): 96 % of control

CCCCNC(=O)C(CONC(=O)OC)NC(C)=O (stereo not given)
T/C (dose: 50.0 mg/kg/injection, schedule: Q01DX005 (ip), vehicle: Klucel (hydroxypropylcellulose) (HPC)): 101 % of control | T/C (dose: 100.0 mg/kg/injection, schedule: Q01DX005 (ip), vehicle: Klucel (hydroxypropylcellulose) (HPC)): 97 % of control | T/C (dose: 200.0 mg/kg/injection, schedule: Q01DX005 (ip), vehicle: Klucel (hydroxypropylcellulose) (HPC)): 101 % of control

O=C1CCc2nc(-c3ccccc3)ncc21
T/C [7]: 99 % of control | T/C [8]: 89 % of control | T/C [9]: 88 % of control

CCN(CC)CC(=O)Nc1ccc2c(c1)C(=O)c1cc(NC(=O)CN(CC)CC)ccc1-2
T/C [10]: 86 % of control | T/C [11]: 94 % of control | T/C [12]: 96 % of control

C[C@H](N)C(=O)NCCNC(=O)[C@H](C)N
T/C (dose: 60.0 mg/kg/injection, schedule: Q01DX005 (ip), vehicle: saline): 96 % of control | T/C (dose: 120.0 mg/kg/injection, schedule: Q01DX005 (ip), vehicle: saline): 107 % of control | T/C (dose: 240.0 mg/kg/injection, schedule: Q01DX005 (ip), vehicle: saline): 105 % of control

O=c1cc(-c2ccc(OCc3ccccc3)cc2)oc2ccccc12
T/C [13]: 92 % of control | T/C [14]: 87 % of control | T/C [15]: 86 % of control

COc1cc2c(cc1O)C(C)Cc1cc3c(cc1N(C)CC2)OCO3 (stereo not given)
T/C (dose: 100.0 mg/kg/injection, schedule: Q04DX002 (ip), vehicle: saline): 106 % of control | T/C (dose: 200.0 mg/kg/injection, schedule: Q04DX002 (ip), vehicle: saline): 113 % of control | T/C (dose: 400.0 mg/kg/injection, schedule: Q04DX002 (ip), vehicle: saline): 103 % of control

COC(=O)Nc1nc2ccc(SC)cc2c(=O)[nH]1
T/C [16]: 103 % of control and 105 % of control | T/C [17]: 113 % of control

O=C(Nc1ccc([N+](=O)[O-])cc1)Nc1nncs1
T/C (dose: 12.5 mg/kg/injection, schedule: Q01DX009 (ip), vehicle: distilled water + Tween-80): 100 % of control | T/C (dose: 25.0 mg/kg/injection, schedule: Q01DX009 (ip), vehicle: distilled water + Tween-80): 107 % of control and 92 % of control | T/C (dose: 50.0 mg/kg/injection, schedule: Q01DX009 (ip), vehicle: distilled water + Tween-80): 115 % of control and 119 % of control | T/C (dose: 100.0 mg/kg/injection, schedule: Q01DX009 (ip), vehicle: distilled water + Tween-80): 119 % of control and 124 % of control | T/C (dose: 200.0 mg/kg/injection, schedule: Q01DX009 (ip), vehicle: distilled water + Tween-80): 110 % of control

CC1OC(OC2CCCc3c(O)c4c(c(O)c32)C(=O)c2ccccc2C4=O)CC(N)C1O (stereo not given)
T/C (dose: 1.25 mg/kg/injection, schedule: Q04DX002 (ip), vehicle: water): 104 % of control and 106 % of control | T/C (dose: 2.5 mg/kg/injection, schedule: Q04DX002 (ip), vehicle: water): 98 % of control and 111 % of control | T/C (dose: 5.0 mg/kg/injection, schedule: Q04DX002 (ip), vehicle: water): 98 % of control and 106 % of control | T/C (dose: 10.0 mg/kg/injection, schedule: Q04DX002 (ip), vehicle: water): 98 % of control and 106 % of control

CC12CCC3(CO3)CC1CCC1C2CCC2(C)C1CCC21CO1 (stereo not given)
T/C (dose: 100.0 mg/kg/injection, schedule: Q01DX001 (ip), vehicle: saline with Tween-80): 102 % of control | T/C (dose: 200.0 mg/kg/injection, schedule: Q01DX001 (ip), vehicle: saline with Tween-80): 99 % of control | T/C (dose: 400.0 mg/kg/injection, schedule: Q01DX001 (ip), vehicle: saline with Tween-80): 88 % of control

O=C1SC(c2ccccc2)=S=C1c1ccccc1
T/C [10]: 104 % of control | T/C [11]: 104 % of control | T/C [12]: 124 % of control

O=C1OC(C(Cl)(Cl)Cl)NC1Cc1ccccc1 (stereo not given)
T/C [10]: 107 % of control | T/C [11]: 103 % of control | T/C [12]: 110 % of control

NC(=O)N/N=C1/CCC(OC(=O)c2ccccc2)CC1CC(=O)O (stereo not given)
T/C [13]: 100 % of control | T/C [14]: 100 % of control | T/C [15]: 100 % of control

c1ccc2nc3c(nc2c1)[nH]c1ccccc13
T/C (dose: 6.25 mg/kg/injection, schedule: Q01DX009 (ip), vehicle: Klucel (hydroxypropylcellulose) (HPC)): 101 % of control | T/C (dose: 12.5 mg/kg/injection, schedule: Q01DX009 (ip), vehicle: Klucel (hydroxypropylcellulose) (HPC)): 95 % of control | T/C (dose: 25.0 mg/kg/injection, schedule: Q01DX009 (ip), vehicle: Klucel (hydroxypropylcellulose) (HPC)): 103 % of control | T/C [16]: 95 % of control

CC(=NCCCCN=C(C)c1cc(O)cc(Br)c1O)c1cc(O)cc(Br)c1O.[Co]
T/C [1]: 90 % of control | T/C [2]: 98 % of control | T/C [3]: 94 % of control

COP(=O)(OC)C(=[N+]=[N-])c1ccccc1
T/C (dose: 6.25 mg/kg/injection, schedule: Q01DX009 (ip), vehicle: water): 98 % of control | T/C (dose: 12.5 mg/kg/injection, schedule: Q01DX009 (ip), vehicle: water): 106 % of control | T/C (dose: 50.0 mg/kg/injection, schedule: Q01DX009 (ip), vehicle: water): 93 % of control | T/C (dose: 100.0 mg/kg/injection, schedule: Q01DX009 (ip), vehicle: water): 98 % of control | T/C (dose: 200.0 mg/kg/injection, schedule: Q01DX009 (ip), vehicle: water): 90 % of control

O=C(O)c1c[nH]c2cc(OCCOc3ccc(Br)cc3)ccc2c1=O
T/C [7]: 87 % of control | T/C [8]: 93 % of control | T/C [9]: 91 % of control

CC1N=C(SCC(=O)c2ccc(F)cc2)N2C(C)N=C(SCC(=O)c3ccc(F)cc3)N12 (stereo not given)
T/C [4]: 111 % of control | T/C [5]: 111 % of control | T/C [6]: 98 % of control

CCN(CC)CCNC(=O)c1ccc(NCN2C(=O)NC(c3ccccc3)(c3ccccc3)C2=O)cc1
T/C [1]: 104 % of control | T/C [2]: 110 % of control

OC(Cc1cccnc1)(c1ccccc1)c1ccccc1
T/C [16]: 111 % of control | T/C [17]: 109 % of control | T/C (dose: 200.0 mg/kg/injection, schedule: Q01DX009 (ip), vehicle: Klucel (hydroxypropylcellulose) (HPC)): 118 % of control

O=C(Nc1cccc2c1C(O)c1ccccc1-2)C(Cl)Cl (stereo not given)
T/C [1]: 97 % of control | T/C [2]: 98 % of control | T/C [3]: 104 % of control

Cc1cc(C)n(-c2ccc(-c3cc(=O)c4ccccc4o3)cc2)n1
T/C [13]: 92 % of control | T/C [14]: 90 % of control

CC(=O)OC1C(O)C(C)OC(OC(=O)C2CCC3C(C2)OC2(CC(OC(=O)/C=C/c4ccccc4)C(C)CO2)C32CO2)C1OC1OC(C)C(O)C(O)C1O (stereo not given)
T/C (dose: 2.0 mg/kg/injection, schedule: Q01DX005 (ip), vehicle: saline + alcohol): 100 % of control and 118 % of control | T/C (dose: 4.0 mg/kg/injection, schedule: Q01DX005 (ip), vehicle: saline + alcohol): 119 % of control | T/C (dose: 16.0 mg/kg/injection, schedule: Q01DX005 (ip), vehicle: saline + alcohol): 151 % of control | T/C (dose: 32.0 mg/kg/injection, schedule: Q01DX005 (ip), vehicle: saline + alcohol): 154 % of control | T/C (dose: 64.0 mg/kg/injection, schedule: Q01DX005 (ip), vehicle: saline + alcohol): 163 % of control

c1ccc2c(c1)N=C(NNC1=Nc3ccccc3SC1)CS2
T/C (dose: 15.0 mg/kg/injection, schedule: Q01DX005 (ip), vehicle: saline with Tween-80): 95 % of control | T/C (dose: 30.0 mg/kg/injection, schedule: Q01DX005 (ip), vehicle: saline with Tween-80): 92 % of control | T/C [1]: 88 % of control

CN=C(N)N/N=C(\c1ccccc1)c1ccc(F)cc1
T/C (dose: 12.5 mg/kg/injection, schedule: Q04DX002 (ip), vehicle: saline with Tween-80): 99 % of control | T/C (dose: 25.0 mg/kg/injection, schedule: Q04DX002 (ip), vehicle: saline with Tween-80): 100 % of control and 111 % of control
